Results: PMC10424186 (Journal of Medicinal Chemistry, 2023)
Where “and” joins values, the source holds several entries; their conditions need not be identical. Equal values may be shown once. Read-outs that look alike come from different tables or passages of the source.

Legend:
Assay type in all cases: biochemical
[1] = target: human JMJD5 (Homo sapiens, UniProt Q8N371); experiment: SPE-MS JMJD5 inhibition assay (hydroxylation of RPS6 128–148 peptide)
Source text: Synthetic peptides with sequences based on reported human 2OG oxygenase substrates were used in SPE-MS inhibition assays: RPS6, residues 128–148, for JMJD5;[42] HIF-α CODD, residues 558–574, for PHD2;[70] HIF-α CAD, residues 788–822, for FIH;[70] H3_1-15K9me3, histone 3 (H3), residues 1–15 with K9 of H3-bearing three methyl groups at the N^ε-position, K4 of H3 substituted by an alanine residue, and K14 of H3 by an isoleucine residue,[73] for KDM4E; and RPL27A, residues 31–49, for RIOX2 (Mina53).[44] All peptides were prepared as C-terminal amides by GL Biochem (Shanghai) Ltd. A synthetic thioether-linked cyclic peptide, hFX-CP101–119,[48] which was designed based on the reported cellular AspH substrate human coagulation factor X (hFX, residues 101–119; C101 was substituted for a D-alanine residue and C112 for a serine residue),[79] was used as AspH substrate; it was prepared with a C-terminal amide according to literature protocols.[80]
Cosubstrate/cofactor stock solutions [L-ascorbic acid/LAA: 50 mM in MQ-grade water; 2-oxoglutarate/2OG: 10 mM in MQ-grade water; ammonium iron(II) sulfate hexahydrate/FAS/(NH4)2Fe(SO4)2·6H2O: 400 mM in 20 mM HCl diluted to 1 mM in MQ-grade water] were freshly prepared from commercial solids (Sigma-Aldrich) on the day the assays were performed. The JMJD5,[42] PHD2,[70] FIH,[70] KDM4E,[72],[73] RIOX2,[44] and AspH[45] SPE-MS inhibition assays were performed as described in the cited literature, using isolated recombinant human enzymes (His6-thioredoxin-JMJD5,[42] His6-PHD2_181–426,[70] His6-FIH,[70] His6-KDM4E,[72],[73] His6-RIOX2_26–465,[87],[88] and His6-AspH315–758[48],[80]) and synthetic peptide substrates (RPS6_128–148 for JMJD5;[42] HIF-α CODD558–574 for PHD2;[70] HIF-α CAD788–822 for FIH;[70] H3_1–15K9me3 for KDM4E;[73] RPL27A31–49 for RIOX2;[44],[71] and hFX-CP101–119 for AspH;[45],[48] see above). For JMJD5, PHD2, FIH, RIOX2, and AspH, substrate hydroxylation was monitored (+16 Da mass shift), while for the KDM4E substrate, demethylation was monitored (−14 Da mass shift) by SPE-MS.

[2] = target: T1, PHD2 (Homo sapiens, UniProt Q9GZT9); experiment: SPE-MS PHD2 inhibition assay (HIF-1α CODD hydroxylation); conditions: Table 2; PHD2 181–426 […], 5.0 μM HIF-1α CODD; n = 2, mean ± SD
T1 construct: His6-PHD2_181–426; made in house; host or cells: Escherichia coli
Method: (§1) H3_1-15K9me3, histone 3 (H3), residues 1–15 with K9 of H3-bearing three methyl groups at the N^ε-position, K4 of H3 substituted by an alanine residue, and K14 of H3 by an isoleucine residue,[73] for KDM4E; and RPL27A, residues 31–49, for RIOX2 (Mina53).[44]
(§2) Cosubstrate/cofactor stock solutions [L-ascorbic acid/LAA: 50 mM in MQ-grade water; 2-oxoglutarate/2OG: 10 mM in MQ-grade water; ammonium iron(II) sulfate hexahydrate/FAS/(NH4)2Fe(SO4)2·6H2O: 400 mM in 20 mM HCl diluted to 1 mM in MQ-grade water] were freshly prepared from commercial solids (Sigma-Aldrich) on the day the assays were performed. The JMJD5,[42] PHD2,[70] FIH,[70] KDM4E,[72],[73] RIOX2,[44] and AspH[45] […] For JMJD5, PHD2, FIH, RIOX2, and AspH, substrate hydroxylation was monitored (+16 Da mass shift), while for the KDM4E substrate, demethylation was monitored (−14 Da mass shift) by SPE-MS.

[3] = target: T2, KDM4E (Homo sapiens, UniProt B2RXH2); experiment: SPE-MS KDM4E inhibition assay (demethylation of H3 1–15 K9me3); conditions: Table 2, 10.0 μM H3 1–15 K9me3, n = 2, mean ± SD
T2 construct: made in house; host or cells: Escherichia coli
T2 sequence (B2RXH2 1-506): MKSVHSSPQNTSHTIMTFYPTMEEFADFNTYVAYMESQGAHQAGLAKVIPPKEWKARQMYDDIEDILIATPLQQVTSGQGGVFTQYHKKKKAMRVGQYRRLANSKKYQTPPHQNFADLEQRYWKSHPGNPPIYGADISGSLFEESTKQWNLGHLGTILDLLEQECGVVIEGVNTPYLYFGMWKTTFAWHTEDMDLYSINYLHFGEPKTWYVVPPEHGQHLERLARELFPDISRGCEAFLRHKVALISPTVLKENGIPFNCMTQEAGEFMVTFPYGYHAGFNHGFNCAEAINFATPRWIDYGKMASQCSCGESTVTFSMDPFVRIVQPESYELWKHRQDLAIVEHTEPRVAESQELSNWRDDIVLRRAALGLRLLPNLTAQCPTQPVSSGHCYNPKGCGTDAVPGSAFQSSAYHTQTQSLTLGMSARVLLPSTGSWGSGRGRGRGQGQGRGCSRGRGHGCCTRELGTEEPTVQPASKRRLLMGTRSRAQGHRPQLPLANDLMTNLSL
Method: as §1, §2

[4] = target: T3, AspH (Homo sapiens, UniProt Q12797); experiment: SPE-MS AspH inhibition assay (hFX-CP101–119 hydroxylation); conditions: Table 2; His6-AspH315–758 0.05 μM, 1.0 μM hFX-CP101–119; n = 2, mean ± SD
T3 construct: N-terminally His6-tagged AspH315–758; made in house; host or cells: Escherichia coli
T3 sequence (Q12797 315-758): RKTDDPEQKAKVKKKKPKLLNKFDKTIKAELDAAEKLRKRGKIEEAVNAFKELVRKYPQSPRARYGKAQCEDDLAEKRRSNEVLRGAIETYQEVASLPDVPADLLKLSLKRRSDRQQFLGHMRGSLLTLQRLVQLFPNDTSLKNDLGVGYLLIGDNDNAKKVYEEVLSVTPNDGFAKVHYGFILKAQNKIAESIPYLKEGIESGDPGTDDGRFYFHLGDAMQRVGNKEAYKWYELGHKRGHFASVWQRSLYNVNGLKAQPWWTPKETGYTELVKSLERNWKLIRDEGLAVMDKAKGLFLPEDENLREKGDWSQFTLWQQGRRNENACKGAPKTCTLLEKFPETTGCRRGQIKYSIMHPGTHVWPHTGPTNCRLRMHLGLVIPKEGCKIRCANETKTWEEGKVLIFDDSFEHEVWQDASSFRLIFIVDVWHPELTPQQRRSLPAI
Method: as §1, §2

[5] = Table 1, JMJD5 […], 2OG 2.0 μM, Fe(II) 2.0 μM, LAA 100 μM, RPS6 128–148 2.0 μM, pH 7.5, 20 °C, n = 3, mean ± SD, read-out: IC50 JMJD5
[6] = isolated recombinant JMJD5, SPE-MS, approximate values, read-out: IC50 for JMJD5 inhibition
[7] = supplementary CSV, read-out: IC50 JMJD5
[8] = isolated recombinant JMJD5, SPE-MS

human JMJD5, sequence (Q8N371 whole entry, the tested form may be a part): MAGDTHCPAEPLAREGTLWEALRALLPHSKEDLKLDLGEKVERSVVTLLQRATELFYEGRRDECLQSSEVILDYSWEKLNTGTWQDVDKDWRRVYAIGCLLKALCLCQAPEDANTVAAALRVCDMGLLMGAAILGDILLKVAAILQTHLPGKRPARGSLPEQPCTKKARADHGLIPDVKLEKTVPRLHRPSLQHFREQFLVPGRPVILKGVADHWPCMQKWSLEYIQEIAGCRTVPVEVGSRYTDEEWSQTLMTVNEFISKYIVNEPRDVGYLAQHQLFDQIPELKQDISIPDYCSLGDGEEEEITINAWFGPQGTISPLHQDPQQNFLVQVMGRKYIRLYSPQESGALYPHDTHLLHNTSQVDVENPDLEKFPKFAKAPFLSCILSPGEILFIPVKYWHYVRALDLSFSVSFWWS
T1 sequence (Q9GZT9 181-426): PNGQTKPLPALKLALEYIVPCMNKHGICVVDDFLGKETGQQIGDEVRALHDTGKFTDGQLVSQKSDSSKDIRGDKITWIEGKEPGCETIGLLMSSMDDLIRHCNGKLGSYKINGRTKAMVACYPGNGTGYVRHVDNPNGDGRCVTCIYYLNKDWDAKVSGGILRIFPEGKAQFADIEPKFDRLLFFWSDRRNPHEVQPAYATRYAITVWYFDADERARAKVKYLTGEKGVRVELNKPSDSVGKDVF

SMILES	IC50 [1, 5]	IC50 [1, 6]	IC50 [1, 7]	also measured
O=C(O)c1ccnc(C(=O)O)c1Nc1ccccc1[N+](=O)[O-] [Compound 2]	17.9 ± 2.6 µM	~17.9 µM and ~16.8 µM	17.9 ± 2.6 µM	
O=C(O)c1ccncc1NCc1ccccc1 [Compound 4]	> 50 µM		> 50 µM	JMJD5 inhibition (in words) [1, 8]: does not inhibit JMJD5
O=C(O)c1ccnc(C(=O)O)c1NCC1CCCCC1 [Compound 5]	25.3 ± 0.5 µM	~25.3 µM	25.3 ± 0.5 µM	
CC(Nc1c(C(=O)O)ccnc1C(=O)O)c1ccccc1 (stereo not drawn) [Compound 8]	3.1 ± 1.5 µM	~3.1 µM	3.1 ± 1.5 µM	JMJD5 inhibition less efficient than 2,4-PDCA (1) ([1]; compared with 1): ~6 fold and ~ 5 fold; JMJD5 inhibition more efficient than 3 ([1]; compared with 3): ~3 fold
CCC(Nc1c(C(=O)O)ccnc1C(=O)O)c1ccccc1 (stereo not drawn) [Compound 9]	7.5 ± 2 µM	~7.5 µM	7.5 ± 2 µM	
O=C(O)c1ccnc(C(=O)O)c1NCCCCc1ccccc1 [Compound 12]	20.8 ± 0.2 µM		20.8 ± 0.2 µM	
O=C(O)c1ccnc(C(=O)O)c1F [Compound 13, 3-fluoro-2,4-PDCA]	27.2 ± 2.9 µM		27.2 ± 2.9 µM	JMJD5 inhibition (in words) [1, 8]: did not efficiently inhibit JMJD5
O=C(O)c1cc(C(=O)O)c(F)cn1 [Compound 15, 5-fluoro-2,4-PDCA]	4.5 ± 0.9 µM	~4.5 µM	4.5 ± 0.9 µM	JMJD5 inhibition (in words) [1, 8]: inhibits
O=C(O)c1cc(C(=O)O)c(NCc2ccccc2)cn1 [Compound 20a, 5-(benzylamino)pyridine-2,4-dicarboxylic acid]				IC50 [2]: > 50 µM; IC50 [3]: 3.2 ± 1.6 µM; IC50 [4]: 0.5 ± 0.2 µM

Further lines, with some results ahead:

IC50 [1, 5]	IC50 [1, 6]	IC50 [1, 7]	SMILES	also measured
9.5 ± 2.2 µM		9.5 ± 2.2 µM	O=C(O)c1ccnc(C(=O)O)c1NCc1ccccc1 [Compound 3]	
5.8 ± 2.9 µM		5.8 ± 2.9 µM	COc1ccc(CNc2c(C(=O)O)ccnc2C(=O)O)cc1 [Compound 6]	
10.4 ± 4.4 µM		10.4 ± 4.4 µM	O=C(O)c1ccnc(C(=O)O)c1NCc1ccc(C(F)(F)F)cc1 [Compound 7]	
19.6 ± 3 µM		19.6 ± 3 µM	O=C(O)c1ccnc(C(=O)O)c1NCCc1ccccc1 [Compound 10]	
19.7 ± 3 µM		19.7 ± 3 µM	O=C(O)c1ccnc(C(=O)O)c1NCCCc1ccccc1 [Compound 11]	
